Laboratory results taken from patent US20160115136A1, “COMPOUNDS, COMPOSITIONS COMPRSING SAME, AND METHODS RELATED THERETO” (UNIVERSITY OF IOWA RESEARCH FOUNDATION, priority 2013, published 2016).
In brackets after ≈: the same amount, converted by molar mass. Several values for one entry are separate records, joined by “and”; a condition that tells them apart may be missing. Equal entries are not always repeated. Where two headings read alike, the source gives them in different places.

What was measured:
[1] = system: glutamate racemase isozyme 2 from Bacillus anthracis (RacE2); test: biochemical; assay type: biochemical; details: FIG. 14, competitive inhibition model
[2] = biological target: T1, glutamate racemase from H. pylori (Helicobacter pylori, UniProt P56068); assay type: biochemical
T1 sequence (P56068 1-255): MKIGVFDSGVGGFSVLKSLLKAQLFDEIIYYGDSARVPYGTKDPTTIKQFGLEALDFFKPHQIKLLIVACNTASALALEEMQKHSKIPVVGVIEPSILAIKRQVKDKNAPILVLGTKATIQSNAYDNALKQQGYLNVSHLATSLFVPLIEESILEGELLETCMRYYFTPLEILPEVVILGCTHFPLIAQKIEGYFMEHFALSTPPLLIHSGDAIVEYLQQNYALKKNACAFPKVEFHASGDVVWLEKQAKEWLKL

[3] = biological target: T2, glutamate racemase (GR) from B. subtilis (Bacillus subtilis, UniProt P94556); details: for Ki: read-out: Ki value
B. subtilis = test: Cell wall lysis assay (modified CytoTox-Glo, luminescence)
S. aureus = test: as above
B. subtilis DB104 = test: Inhibition of bacterial growth (MIC50, absorbance at 600 nm, 24 h)
E. coli Acella = test: as above; details: for growth inhibition: concentrations <3 mg mL^−1
S. aureus ATCC 12600 = test: as above; details: for growth inhibition: concentrations <3 mg mL^−1
[4] = biological target: T3, glutamate racemase isozyme 2 from Bacillus anthracis (RacE2) (Bacillus anthracis, UniProt A0A6L8PKK6); assay type: biochemical; details: 25° C., pH 8.0
[5] = biological target: GR from B. anthracis isozyme 1 (RacE1) (Bacillus anthracis, UniProt A0A6L8PVU3); test: biochemical
[6] = biological target: T3, glutamate racemase isozyme 2 from Bacillus anthracis (RacE2); test: biochemical; assay type: biochemical
GR from F. tularensis = GR from F. tularensis (Francisella tularensis, UniProt Q5NFN6); test: biochemical
[7] = biological target: T2, glutamate racemase (GR) from B. subtilis; test: biochemical
[8] = Ki converted into binding energy divided by number of non-hydrogen atoms
[9] = from log(Ki) and calculated logP (MarvinSketch)
[10] = Staphylococcus aureus, ATCC12600

T2 sequence (P94556 whole entry): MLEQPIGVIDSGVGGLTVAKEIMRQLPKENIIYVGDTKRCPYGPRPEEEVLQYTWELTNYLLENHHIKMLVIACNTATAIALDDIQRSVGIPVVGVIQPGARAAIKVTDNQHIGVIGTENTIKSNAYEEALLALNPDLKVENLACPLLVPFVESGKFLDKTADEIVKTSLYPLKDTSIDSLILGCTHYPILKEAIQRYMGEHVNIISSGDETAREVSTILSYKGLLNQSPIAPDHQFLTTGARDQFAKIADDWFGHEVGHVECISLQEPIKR
T3 sequence (A0A6L8PKK6 1-269): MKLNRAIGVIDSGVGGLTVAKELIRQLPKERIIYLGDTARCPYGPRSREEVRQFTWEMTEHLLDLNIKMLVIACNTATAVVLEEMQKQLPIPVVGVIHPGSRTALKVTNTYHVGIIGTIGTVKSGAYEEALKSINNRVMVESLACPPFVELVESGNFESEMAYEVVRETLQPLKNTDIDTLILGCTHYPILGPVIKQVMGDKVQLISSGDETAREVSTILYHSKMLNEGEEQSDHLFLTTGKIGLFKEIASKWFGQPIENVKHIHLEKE
GR from B. anthracis isozyme 1 (RacE1), sequence (A0A6L8PVU3 1-276): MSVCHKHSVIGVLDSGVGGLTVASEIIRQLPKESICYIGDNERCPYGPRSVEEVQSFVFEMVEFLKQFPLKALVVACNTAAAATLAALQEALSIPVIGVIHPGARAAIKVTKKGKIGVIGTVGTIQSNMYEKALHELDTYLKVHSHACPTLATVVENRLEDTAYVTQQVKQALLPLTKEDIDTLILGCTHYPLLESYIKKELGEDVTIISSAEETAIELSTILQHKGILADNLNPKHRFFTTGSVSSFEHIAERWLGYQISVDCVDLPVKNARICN
GR from F. tularensis, sequence (Q5NFN6 1-265): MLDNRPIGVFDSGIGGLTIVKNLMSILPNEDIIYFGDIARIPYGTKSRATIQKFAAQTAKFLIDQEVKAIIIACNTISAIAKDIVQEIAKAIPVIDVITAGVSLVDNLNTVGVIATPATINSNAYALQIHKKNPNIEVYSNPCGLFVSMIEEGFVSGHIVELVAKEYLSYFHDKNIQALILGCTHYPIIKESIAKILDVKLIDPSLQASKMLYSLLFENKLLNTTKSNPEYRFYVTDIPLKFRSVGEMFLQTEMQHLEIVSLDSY

Question: How did the “potency against B. anthracis RacE2 relative to B. subtilis GR” value [1] turn out when “7-fluoro-2-sulfo-1H-benzo[d]imidazole-5-carboxylic acid [Compound 4] [listing 1 of 2 here]” was run?
Answer: equal potency

Question: And the IC50 ([2]; best-fit value, Table 5)?
Answer: 102 µM

Question: And the “Hill Slope (best-fit value)” value ([2]; dose-response fit)?
Answer: −6.498

Question: What about the IC50 ([2]; dose-response inhibition model, FIG. 16) of the same compound?
Answer: ~100 µM

Question: And the “LogIC50 (best-fit value)” value ([2]; log of compound concentration in mM)?
Answer: −0.9935

Question: And the “LE (ligand efficiency)” value [3, 8]?
Answer: 0.45 kcal mol^−1 atom^−1

Question: What about the Ki [3] of the same compound?
Answer: 2.5 µM

Question: What about the EC50 for lysis (B. subtilis) of the same compound?
Answer: 520 µg/mL

Question: And the increase in luminescence (B. subtilis; low-millimolar range)?
Answer: 400%

Question: And the EC50 (B. subtilis; read-out: EC50 value of cell lysis, FIG. 17, within the same range as the MIC50)?
Answer: ~2000 µM

Question: And the increase in luminescence (S. aureus; S. aureus, millimolar inhibitor concentration range)?
Answer: ~40%

Question: What about the MIC50 (B. subtilis DB104; B. subtilis) of the same compound?
Answer: 260 ± 110 µg/mL

Question: What about the “MIC50 value for growth inhibition” value (B. subtilis DB104; B. subtilis) of the same compound?
Answer: 260 µg/mL

Question: And the MIC50 (B. subtilis DB104; B. subtilis, FIG. 15)?
Answer: 1,788 μM and 460 μg/mL

Question: And the “MIC50 value for bacterial growth inhibition” value (B. subtilis DB104; B. subtilis, FIG. 17)?
Answer: 2000 µM

Question: What about the MIC50 (E. coli Acella; E. coli) of the same compound?
Answer: 1600 ± 200 µg/mL

Question: And the MIC50 (S. aureus ATCC 12600; S. aureus)?
Answer: 1000 ± 250 µg/mL

Question: Which Ki [4] does the source give for “7-fluoro-2-sulfo-1H-benzo[d]imidazole-5-carboxylic acid [Compound 4] [listing 2 of 2 here]” here?
Answer: 5.4 ± 2.5 µM

Question: Which IC50 [5] does the source give for `O=S(=O)(O)c1nc2ccccc2[nH]1` [Compound 2, 1H-benzimidazole-2-sulfonic acid] here?
Answer: 120 ± 5 µM

Question: What about the IC50 [6] of the same compound?
Answer: 40 ± 5 µM

Question: What about the IC50 (GR from F. tularensis) of the same compound?
Answer: 110 ± 12 µM

Question: And the “LE (ligand efficiency)” value [3]?
Answer: 0.53 kcal mol^−1 atom^−1

Question: What about the “LiPE (lipophilic efficiency)” value [3] of the same compound?
Answer: 5.3

Question: What about the Ki ([3]; GR from B. subtilis) of the same compound?
Answer: 9 µM

Question: And the IC50 [7]?
Answer: 250 ± 20 µM

Question: What about the MIC50 (B. subtilis DB104; Bacillus subtilis, DB104) of the same compound?
Answer: 720 ± 60 µg/mL (≈ 3.63 mM)

Question: With `Cc1ccc2[nH]c(S(=O)(=O)O)nc2c1` [Compound 15] as the compound, how does the “LE (ligand efficiency)” value [3, 8] read?
Answer: 0.46 kcal mol^−1 atom^−1

Question: And the “LiPE (lipophilic efficiency)” value [3, 9]?
Answer: 4.4

Question: And the Ki [7]?
Answer: 21 ± 5 µM

Question: And the MIC50 (B. subtilis DB104; Bacillus subtilis, DB104)?
Answer: > 3000 µg/mL

Question: What does the source list for `CCCCNS(=O)(=O)c1ccc2[nH]c(S(=O)(=O)O)nc2c1` [Compound 18, 5-(n-butylsulfamoyl)-1H-benzo[d]imidazole-2-sulfonic acid]?
Answer: LE (ligand efficiency) [3, 8]: 0.30 kcal mol^−1 atom^−1; LiPE (lipophilic efficiency) [3, 9]: 5.0; Ki [7]: 12 ± 3.6 µM; MIC50 (B. subtilis DB104; Bacillus subtilis, DB104): 360 ± 20 µg/mL (≈ 1.08 mM); growth inhibition (E. coli Acella; E. coli): no significant growth inhibition; MIC50 (E. coli Acella; Escherichia coli): > 3000 µg/mL; growth inhibition (S. aureus ATCC 12600; S. aureus): no significant growth inhibition; MIC50 (S. aureus ATCC 12600; [10]): > 3000 µg/mL

Question: `O=C(c1ccccc1)c1ccc2[nH]c(S(=O)(=O)O)nc2c1` [Compound 24] was tested. Which “loss in binding affinity versus parent compound” value [3] did it give?
Answer: ~100 fold

Question: And the “LE (ligand efficiency)” value [3, 8]?
Answer: 0.20 kcal mol^−1 atom^−1

Question: And the “LiPE (lipophilic efficiency)” value [3, 9]?
Answer: 1.9

Question: And the Ki [7]?
Answer: 830 ± 75 µM

Question: And the MIC50 (B. subtilis DB104; Bacillus subtilis, DB104)?
Answer: 140 ± 20 µg/mL (≈ 0.463 mM)

Question: How did the “LE (ligand efficiency)” value [3, 8] turn out when `O=S(=O)(O)c1nc2ccc(Cl)cc2[nH]1` [Compound 26] was run?
Answer: 0.48 kcal mol^−1 atom^−1

Question: What about the “LiPE (lipophilic efficiency)” value [3, 9] of the same compound?
Answer: 4.5

Question: What about the Ki [7] of the same compound?
Answer: 13 ± 2.4 µM

Question: And the MIC50 (B. subtilis DB104; Bacillus subtilis, DB104)?
Answer: > 3000 µg/mL

Question: With `O=S(=O)(O)c1nc2cc(S(=O)(=O)N3CCOCC3)ccc2[nH]1` [Compound 29, 5-(morpholinosulfonyl)-1H-benzo[d]imidazole-2-sulfonic acid] as the compound, how does the “LE (ligand efficiency)” value [3, 8] read?
Answer: 0.34 kcal mol^−1 atom^−1

Question: And the “LiPE (lipophilic efficiency)” value [3, 9]?
Answer: 6.6

Question: What about the Ki [7] of the same compound?
Answer: 6.4 µM

Question: What about the MIC50 (B. subtilis DB104; Bacillus subtilis, DB104) of the same compound?
Answer: 320 ± 10 µg/mL (≈ 0.921 mM)

Question: And the growth inhibition (E. coli Acella; E. coli)?
Answer: no significant growth inhibition

Question: What about the MIC50 (E. coli Acella; Escherichia coli) of the same compound?
Answer: > 3000 µg/mL

Question: What about the growth inhibition (S. aureus ATCC 12600; S. aureus) of the same compound?
Answer: no significant growth inhibition

Question: What about the MIC50 (S. aureus ATCC 12600; [10]) of the same compound?
Answer: > 3000 µg/mL

Question: `CC1(C)S[C@@H]2[C@H](NC(=O)[C@H](N)c3ccccc3)C(=O)N2[C@H]1C(=O)O` [ampicillin, reference compound] was tested. Which “luminescence response (cell lysis)” value (S. aureus; S. aureus exposed 24 h, control antibiotics, FIG. 23A) did it give?
Answer: dose-dependent increase in luminescence
